{"source": "patent EP4700027A1", "about": "“CRYSTALLINE FORM OF NITROGEN-CONTAINING TETRACYCLIC COMPOUND AND PREPARATION METHOD THEREFOR” (Jiangsu Hengrui Pharmaceuticals Co., Ltd., priority 2023, dated 2024)", "key": {"[1]": {"test": "Influencing factor stability study on crystal forms (light, high temperature, high humidity, 30 days)", "format": "physicochemical"}, "[2]": {"test": "Dynamic vapor sorption (DVS) hygroscopicity testing", "format": "physicochemical", "source_text": "According to the description of hygroscopicity characteristics and the definitions of hygroscopic weight gains in \"General Rule 9103, Guidelines for Hygroscopicity Trials for Pharmaceuticals\" in the Chinese Pharmacopoeia, Volume IV, 2015 Edition, • deliquescent: sufficient water is absorbed to form a liquid; • extremely hygroscopic: the hygroscopic weight gain is not less than 15%; • hygroscopic: the hygroscopic weight gain is less than 15% but not less than 2%; • slightly hygroscopic: the hygroscopic weight gain is less than 2% but not less than 0.2%; nonhygroscopic or practically nonhygroscopic: the hygroscopic weight gain is less than 0.2%.\nDVS refers to dynamic vapor sorption: The analysis was performed using SMS DVS Advantage; at 25 °C, the humidity was changed as follows: 50%-95%-0%-95%-50%, in steps of 10% (5% for the last step) (specific humidity ranges are shown in corresponding patterns, and those listed here were used in most cases); the criterion was dm/dt being not greater than 0.002%."}, "[3]": {"conditions": "Light exposure (4500 Lux), 7 days"}, "[4]": {"conditions": "Light exposure (4500 Lux), 14 days"}, "[5]": {"conditions": "Light exposure (4500 Lux), 30 days"}}}
{"smiles": "C=CC(=O)N1CCN2C(=O)c3cc(F)c(-c4ccc(F)c5sc(N)c(C#N)c45)c4c(Cl)nn(c34)CC[C@H]2C1", "note": "[crystal form G]", "values": [{"measurement": "Color and state", "setting": "[1]; 40 °C, 7 days", "result": "Off-white solid"}, {"measurement": "Crystal form", "setting": "[1]; 40 °C, 7 days", "result": "Did not change"}, {"measurement": "Purity (%)", "setting": "[1]; 40 °C, 7 days", "result": 98.2, "unit": "%"}, {"measurement": "Color and state", "setting": "[1]; 40 °C, 14 days", "result": "Off-white solid"}, {"measurement": "Crystal form", "setting": "[1]; 40 °C, 14 days", "result": "Did not change"}, {"measurement": "Purity (%)", "setting": "[1]; 40 °C, 14 days", "result": 97.8, "unit": "%"}, {"measurement": "Color and state", "setting": "[1]; 40 °C, 30 days", "result": "Off-white solid"}, {"measurement": "Crystal form", "setting": "[1]; 40 °C, 30 days", "result": "Did not change"}, {"measurement": "Purity (%)", "setting": "[1]; 40 °C, 30 days", "result": 97.7, "unit": "%"}, {"measurement": "Color and state", "setting": "[1]; 60 °C, 7 days", "result": "Off-white solid"}, {"measurement": "Crystal form", "setting": "[1]; 60 °C, 7 days", "result": "Did not change"}, {"measurement": "Purity (%)", "setting": "[1]; 60 °C, 7 days", "result": 98.3, "unit": "%"}, {"measurement": "Color and state", "setting": "[1]; 60 °C, 14 days", "result": "Off-white solid"}, {"measurement": "Crystal form", "setting": "[1]; 60 °C, 14 days", "result": "Did not change"}, {"measurement": "Purity (%)", "setting": "[1]; 60 °C, 14 days", "result": 98.1, "unit": "%"}, {"measurement": "Color and state", "setting": "[1]; 60 °C, 30 days", "result": "Off-white solid"}, {"measurement": "Crystal form", "setting": "[1]; 60 °C, 30 days", "result": "Did not change"}, {"measurement": "Purity (%)", "setting": "[1]; 60 °C, 30 days", "result": 98.1, "unit": "%"}, {"measurement": "Color and state", "setting": "[1]; 75% RH, 7 days", "result": "Off-white solid"}, {"measurement": "Crystal form", "setting": "[1]; 75% RH, 7 days", "result": "Did not change"}, {"measurement": "Purity (%)", "setting": "[1]; 75% RH, 7 days", "result": 98.5, "unit": "%"}, {"measurement": "Color and state", "setting": "[1]; 75% RH, 14 days", "result": "Off-white solid"}, {"measurement": "Crystal form", "setting": "[1]; 75% RH, 14 days", "result": "Did not change"}, {"measurement": "Purity (%)", "setting": "[1]; 75% RH, 14 days", "result": 98.5, "unit": "%"}, {"measurement": "Color and state", "setting": "[1]; 75% RH, 30 days", "result": "Off-white solid"}, {"measurement": "Crystal form", "setting": "[1]; 75% RH, 30 days", "result": "Did not change"}, {"measurement": "Purity (%)", "setting": "[1]; 75% RH, 30 days", "result": 98.5, "unit": "%"}, {"measurement": "Color and state", "setting": "[1]; 92.5% RH, 7 days", "result": "Off-white solid"}, {"measurement": "Crystal form", "setting": "[1]; 92.5% RH, 7 days", "result": "Did not change"}, {"measurement": "Purity (%)", "setting": "[1]; 92.5% RH, 7 days", "result": 98.5, "unit": "%"}, {"measurement": "Color and state", "setting": "[1]; 92.5% RH, 14 days", "result": "Off-white solid"}, {"measurement": "Crystal form", "setting": "[1]; 92.5% RH, 14 days", "result": "Did not change"}, {"measurement": "Purity (%)", "setting": "[1]; 92.5% RH, 14 days", "result": 98.5, "unit": "%"}, {"measurement": "Color and state", "setting": "[1]; 92.5% RH, 30 days", "result": "Off-white solid"}, {"measurement": "Crystal form", "setting": "[1]; 92.5% RH, 30 days", "result": "Did not change"}, {"measurement": "Purity (%)", "setting": "[1]; 92.5% RH, 30 days", "result": 98.5, "unit": "%"}, {"measurement": "Color and state", "setting": "[1]; Initial, 0 days", "result": "Off-white solid"}, {"measurement": "Crystal form", "setting": "[1]; Initial, 0 days", "result": "Crystal form G"}, {"measurement": "Purity (%)", "setting": "[1]; Initial, 0 days", "result": 98.5, "unit": "%"}, {"measurement": "Color and state", "setting": "[1]; [3]", "result": "Off-white solid"}, {"measurement": "Crystal form", "setting": "[1]; [3]", "result": "Did not change"}, {"measurement": "Purity (%)", "setting": "[1]; [3]", "result": 98.5, "unit": "%"}, {"measurement": "Color and state", "setting": "[1]; [4]", "result": "Off-white solid"}, {"measurement": "Crystal form", "setting": "[1]; [4]", "result": "Did not change"}, {"measurement": "Purity (%)", "setting": "[1]; [4]", "result": 98.4, "unit": "%"}, {"measurement": "Color and state", "setting": "[1]; [5]", "result": "Off-white solid"}, {"measurement": "Crystal form", "setting": "[1]; [5]", "result": "Did not change"}, {"measurement": "Purity (%)", "setting": "[1]; [5]", "result": 98.3, "unit": "%"}, {"measurement": "hygroscopic weight gain", "setting": "[2]; accelerated experimental conditions (70% RH)", "result": "about 1.21%"}, {"measurement": "crystal form re-identified after DVS testing", "setting": "[2]; after DVS testing", "result": "did not change"}, {"measurement": "hygroscopic weight gain", "setting": "[2]; extreme conditions (90% RH)", "result": "about 1.60%"}, {"measurement": "desorption process of the sample versus its adsorption process", "setting": "[2]; humidity changing from 0% to 95% RH", "result": "substantially overlapped"}, {"measurement": "hygroscopic weight gain", "setting": "[2]; normal storage conditions (25 °C and 60% RH)", "result": "about 1.04%"}]}
